Laboratory results: patent US6426093B1, “Synergistic biocidal activity if ternary complexes of negatively-charged biocides (component A), transition metal ions (component B), and neutral chelators (component C)” (Yissum Research Development Company of the Hebrew …, priority 1998, dated 2002)

How the values were obtained:
E. coli = E. coli inactivation, survival by colony-forming ability; type: cell-based
Experimental: A sample of bacteria from the stock solution was diluted 100-fold in “reaction buffer” to a final concentration of 0.6 OD600 (4.8×10^6 cells/ml). Various agents were added to the bacteria following 15 minutes of preincubation at 37° C. Aliquots were removed at indicated time points into “termination buffer” to stop the reaction, and diluted by a factor of 50 to 10^6. Samples from each dilution were then plated on LB agar and grown overnight at 37° C. Each sample was plated at least five times. The colonies formed were then counted. Survival curves were evaluated from colony counts. Each experiment was repeated at least three times, and the mean values and standard error of triplicates were calculated.
In the experiments shown in FIG. 3, all the incubation mixtures contained glucose (0.5% w/v) and MgSO4 (1 mM) in HEPES buffer (10 mM, pH=7.4), and bacteria (4.8×10^6 cells/ml). The cells were exposed to the combination of PCP (0.5 mM) and Fe(OP)3 (5 μM)—designated open triangles; or with the addition of DMSO (5%)—designated closed triangles; or with SOD (50 U/ml)—designated open circles. The results presented in Table 1, which were obtained using the experimental conditions and methods described above in this example, show the effect of different concentrations of PCP and copper complex and their combinations on the inactivation of E. coli.

[1] = system: Bone marrow-derived mast cells (MC-9 line); assay: Killing of mast cells, survival by trypan blue method; type: cell-based, mice; conditions: 30 minutes
Experimental: Bone marrow-derived mast cells (MC-9 line) were obtained from the femora of mice (line C57BL/6). The cells were cultured at 37° C. in humidified atmosphere containing 5% of CO2 in RPMI-1640, supplemented with 10% fetal calf serum, 2 mM L-glutamine, 100 U/ml penicillin, 100 μg/ml streptomycin, and 50 μM β-2-mercaptoethanol. Mast cells were grown (14 days), washed and resuspended in reaction medium (only RPMI-1640) and treated for 30 minutes as indicated above. The survival was determined by the trypan blue method.

**Q.** For `[Cu+2].c1cnc2c(c1)ccc1cccnc12.c1cnc2c(c1)ccc1cccnc12` [Cu^II (OP)2], which “Survival (%)” value (E. coli; Cu^II (OP)2 1 μM) is on record?
**A.** 99.5%

**Q.** How did the “Survival (%)” value ([1]; Fe^II (OP)3 100 (unit not given)) turn out when `[Fe+2].c1cnc2c(c1)ccc1cccnc12.c1cnc2c(c1)ccc1cccnc12.c1cnc2c(c1)ccc1cccnc12` [Fe^II (OP)3] was run?
**A.** 95.4%

**Q.** What does the source list for `Oc1c(Cl)c(Cl)c(Cl)c(Cl)c1Cl` [PCP, Pentachlorophenol]?
**A.** Survival (%) (E. coli; PCP 0.4 mM): 95.6%; Survival (%) ([1]; PCP 0.5 mM): 90.5%

**Q.** `[Cu+2].c1cnc2c(c1)ccc1cccnc12.c1cnc2c(c1)ccc1cccnc12.c1cnc2c(c1)ccc1cccnc12` [[Cu^II (OP)3]^2+complex, 1,10-phenanthroline-copper [Cu^II (OP)3]^2+complex] was tested. Which “activity relative to the analogous iron complex” value (E. coli; in combination with PCP, bacterial inactivation) did it give?
**A.** 100 times
